From ChEMBL document CHEMBL1151245, “Structures and histamine release inhibitory effects of prenylated orcinol derivatives from Rhododendron dauricum” (J Nat Prod, 2004) come the findings set out here.

For this assay, the system named is Mast cell. Kind of assay: Inhibition of compound 48/80-induced histamine release in Wistar rat peritoneal mast cells. The class given is functional, cell-based.
For orientation: IC50 means the midpoint of a concentration-inhibition curve. Low values mean higher potency, high ones lower potency. `CC(C)=CCC/C(C)=C/CC[C@]1(C)C=Cc2c(O)cc(C)cc2O1` [CONFLUENTIN] registered an IC50 of 205 µM.
In the case of `C=C(C)C(O)CC/C(C)=C/CC[C@]1(C)C=Cc2c(O)cc(C)cc2O1` (stereo partly drawn) [DAURICHROMENE A] it was 1.6 µM; in that of `C=C(CCC=C(C)C)C(O)CC[C@]1(C)C=Cc2c(O)cc(C)cc2O1` (stereo partly drawn) [DAURICHROMENE B], 4.4 µM; in that of `C/C(=C\CC[C@]1(C)C=Cc2c(O)cc(C)cc2O1)C/C=C\C(C)(C)O` [DAURICHROMENE C], 87.4 µM.
The value for `C/C(=C\CC/C(C)=C/CC[C@]1(C)C=Cc2c(O)cc(C)cc2O1)CO` [DAURICHROMENE D] was 1.3 µM; that for `CC(C)=CCC/C(C)=C/CC/C(C)=C/Cc1c(O)cc(C)cc1O` [GRIFOLIN] was 81.6 µM; that for `COc1ccc2c(c1)c(CC(=O)O)c(C)n2C(=O)c1ccc(Cl)cc1` [INDOMETHACIN] was 250 µM.
The value for `Cc1cc(O)cc(O)c1` [ORCINOL] was “Not Active”.
